Experiments:
[1] = biological target: Human immunodeficiency virus type 1 reverse transcriptase (Human immunodeficiency virus 1, UniProt Q72547); assay: Inhibition of HIV-1 NL4-3 reverse transcriptase by RT-PCR analysis
[2] = biological target: Human immunodeficiency virus type 1 protease (Human immunodeficiency virus 1, UniProt Q72874); assay: Inhibition of HIV-1 protease expressed in Escherichia coli using Arg-Glu-(EDANS)-Ser-Gln-Asn-Tyr-Pro-Ile-Val-Gln-Lys-([…])-Arg as substrate preincubated with compound for 20 to 30 mins followed by substrate addition and measured after 10 mins by FRET analysis
[3] = biological target: Human immunodeficiency virus type 1 reverse transcriptase (Human immunodeficiency virus 1) (UniProt Q72547); assay: Inhibition of HIV-1 NL4-3 reverse transcriptase at 100 uM by RT-PCR analysis relative to control
[4] = system: Human immunodeficiency virus 1; assay: Antiviral activity against VSV-G pseudotyped HIV1 NL4-3 infected in HEK293T cells assessed as inhibition of late stage viral replication pre-infected with cells for 5 hrs followed by compound treatment for 48 hrs and further infected with human SupT1 cells for 48 hrs by luciferase based analysis; format: functional, organism-based; settings: Human immunodeficiency virus 1, NL4-3, HEK-293T
[5] = system: Human immunodeficiency virus 1; assay: microbe, parasite or virus in culture
[6] = Selectivity ratio of EC50 for antiviral activity against DRV-resistant HIV1 mutant to EC50 for antiviral activity against wild-type HIV1 NL4-3 infected in human SUP-T1 cells assessed as inhibition of viral replication; format: functional, Human immunodeficiency virus 1
[7] = system: Human immunodeficiency virus 1; assay: microbe, parasite or virus in culture; settings: Human immunodeficiency virus 1, NL4-3, SUP-T1, 48 h
Description: Antiviral activity against VSV-G pseudotyped HIV1 NL4-3 infected in human SUP-T1 cells assessed as inhibition of early stage viral replication incubated for 48 hrs by luciferase based analysis

[8] = system: Human immunodeficiency virus 1; assay: Antiviral activity against wild-type HIV1 NL4-3 infected in human SUP-T1 cells assessed as inhibition of viral replication pre-infected with compound for 1 day followed by compound washout and replaced with fresh medium for 48 hrs and further infected with human TZM-bl cells by lucifrease based analysis; format: functional, organism-based; settings: Human immunodeficiency virus 1, NL4-3, SUP-T1
[9] = Selectivity ratio of EC50 for antiviral activity against VSV-G pseudotyped HIV1 NL4-3 infected in human SUP-T1 cells assessed as inhibition of early stage viral replication to EC50 for antiviral activity against VSV-G pseudotyped HIV1 NL4-3 infected in HEK293T cells assessed as inhibition of late stage viral replication; format: functional, Human immunodeficiency virus 1

SMILES | IC50 [1] | IC50 [2] | inhibition [3] | also measured
CC(C)CN(C[C@@H](O)[C@H](Cc1ccccc1)NC(=O)c1cc2cc(O)ccc2[nH]1)S(=O)(=O)c1ccc(N)cc1 | 102 µM | 0.86 µM |  | 
CC(C)CN(C[C@@H](O)[C@H](Cc1ccccc1)NC(=O)c1cc2ccc(O)cc2o1)S(=O)(=O)c1ccc(N)cc1 |  | 3.05 µM | < 20% | 
COc1ccc(S(=O)(=O)N(CC(C)C)C[C@@H](O)[C@H](Cc2ccccc2)NC(=O)c2c[nH]c3ccccc23)cc1 |  | 12.9 µM | < 20% | 
COc1ccc(S(=O)(=O)N(CC(C)C)C[C@@H](O)[C@H](Cc2ccccc2)NC(=O)c2cc3cc(N)ccc3o2)cc1 |  | 5.3 µM | < 20% | 
COc1ccc(S(=O)(=O)N(CC(C)C)C[C@@H](O)[C@H](Cc2ccccc2)NC(=O)c2cc3cc(O)c(O)cc3o2)cc1 | 2.35 µM | 1.93 µM |  | EC50 [4]: 4.4 µM; EC50 [5]: 16.6 µM; Ratio EC50 [6]: 3.8; EC50 [7]: 9.33 µM; EC50 [8]: 4.4 µM; Ratio EC50 [9]: 2.12
COc1ccc(S(=O)(=O)N(CC(C)C)C[C@@H](O)[C@H](Cc2ccccc2)NC(=O)c2cc3cc(O)ccc3o2)cc1 |  | 2.38 µM | < 20% | 
COc1ccc(S(=O)(=O)N(CC(C)C)C[C@@H](O)[C@H](Cc2ccccc2)NC(=O)c2coc3ccc(O)cc23)cc1 | 82.7 µM | 2.05 µM |  | 
COc1ccc(S(=O)(=O)N(CC(C)C)C[C@@H](O)[C@H](Cc2ccccc2)NC(=O)c2cc3cc(O)ccc3[nH]2)cc1 |  | 0.58 µM | < 20% | 
CC(C)CN(C[C@@H](O)[C@H](Cc1ccccc1)NC(=O)c1cc2ccc(O)cc2[nH]1)S(=O)(=O)c1ccc(N)cc1 | 178 µM | 0.55 µM |  | 
COc1ccc(S(=O)(=O)N(CC(C)C)C[C@@H](O)[C@H](Cc2ccccc2)NC(=O)c2cc3ccc(O)cc3[nH]2)cc1 | 164 µM | 0.5 µM |  | 
COc1ccc(S(=O)(=O)N(CC(C)C)C[C@@H](O)[C@H](Cc2ccccc2)NC(=O)c2cc3ccc(O)cc3[nH]2)cn1 |  | 0.46 µM | < 20% | 
COc1ccc(S(=O)(=O)N(CC(C)C)C[C@@H](O)[C@H](Cc2ccccc2)NC(=O)c2cc3cc(O)c(O)cc3[nH]2)cc1 | 96.5 µM | 1.07 µM |  | 
COc1ccc(S(=O)(=O)N(CC(C)C)C[C@@H](O)[C@H](Cc2ccccc2)NC(=O)c2cc3cc(O)c(O)cc3o2)cn1 | 5.82 µM | 2.31 µM |  | EC50 [4]: 4.2 µM; EC50 [5]: 17 µM; Ratio EC50 [6]: 4.1; EC50 [7]: 14.5 µM; EC50 [8]: 4.2 µM; Ratio EC50 [9]: 3.45
O=C1Nc2ccc(Cl)cc2[C@@](C#CC2CC2)(C(F)(F)F)O1 [EFAVIRENZ] |  |  |  | EC50 [4]: > 100 µM
COc1ccc(S(=O)(=O)N(CC(C)C)C[C@@H](O)[C@H](Cc2ccccc2)NC(=O)c2cc3ccc(N)cc3o2)cc1 |  | 3.73 µM | < 20% | 
COc1ccc(S(=O)(=O)N(CC(C)C)C[C@@H](O)[C@H](Cc2ccccc2)NC(=O)c2cc3cc(O)c(O)cc3[nH]2)cn1 | 1.52 µM | 0.84 µM |  | EC50 [4]: 0.17 µM; EC50 [5]: 2.19 µM; Ratio EC50 [6]: 12.9; EC50 [7]: 10.5 µM; EC50 [8]: 0.17 µM; Ratio EC50 [9]: 61.59
COc1ccc(S(=O)(=O)N(CC(C)C)C[C@@H](O)[C@H](Cc2ccccc2)NC(=O)c2cc3ccc(O)cc3o2)cc1 |  | 2 µM | < 20% | 
COc1ccc(S(=O)(=O)N(CC(C)C)C[C@@H](O)[C@H](Cc2ccccc2)NC(=O)c2cc3ccc(O)cc3o2)cn1 | 223 µM | 2.84 µM |  | 
COc1ccc(S(=O)(=O)N(CC(C)C)C[C@@H](O)[C@H](Cc2ccccc2)NC(=O)c2cc3cc(O)ccc3o2)cn1 | 118 µM | 1.98 µM |  | 
COc1ccc(S(=O)(=O)N(CC(C)C)C[C@@H](O)[C@H](Cc2ccccc2)NC(=O)c2cc3ccccc3[nH]2)cc1 |  | 7.51 µM | < 20% | 
CC(C)CN(C[C@@H](O)[C@H](Cc1ccccc1)NC(=O)c1cc2ccccc2o1)S(=O)(=O)c1ccc(N)cc1 |  | 16.3 µM | < 20% | 
COc1ccc(S(=O)(=O)N(CC(C)C)C[C@@H](O)[C@H](Cc2ccccc2)NC(=O)c2coc3cc(O)c(O)cc23)cn1 | 7.5 µM | 1.36 µM |  | EC50 [4]: 1.76 µM; EC50 [5]: 2.83 µM; Ratio EC50 [6]: 1.6; EC50 [7]: 22.7 µM; EC50 [8]: 1.76 µM; Ratio EC50 [9]: 12.88
CC(C)CN(C[C@@H](O)[C@H](Cc1ccccc1)NC(=O)c1cc2cc(O)ccc2o1)S(=O)(=O)c1ccc(N)cc1 |  | 4.53 µM | < 20% | 
COc1ccc(S(=O)(=O)N(CC(C)C)C[C@@H](O)[C@H](Cc2ccccc2)NC(=O)c2coc3ccccc23)cc1 |  | 8.96 µM | < 20% | 
COc1ccc(S(=O)(=O)N(CC(C)C)C[C@@H](O)[C@H](Cc2ccccc2)NC(=O)c2cc3ccccc3o2)cc1 | 65.5 µM | 9.21 µM |  | 
COc1ccc(S(=O)(=O)N(CC(C)C)C[C@@H](O)[C@H](Cc2ccccc2)NC(=O)c2cc3cc(O)ccc3[nH]2)cn1 |  | 0.74 µM | < 20% | 
COc1ccc(S(=O)(=O)N(CC(C)C)C[C@@H](O)[C@H](Cc2ccccc2)NC(=O)c2coc3cc(O)ccc23)cc1 | 60.3 µM | 1.56 µM |  | 
CC(C)CN(C[C@@H](O)[C@H](Cc1ccccc1)NC(=O)O[C@H]1CO[C@H]2OCC[C@H]21)S(=O)(=O)c1ccc(N)cc1 |  |  |  | EC50 [4]: 0.002 µM; EC50 [8]: 0.002 µM
